Here are results for 31 compounds from patent US12180189B2, “Proteostasis regulators” (Kineta, Inc., priority 2011, dated 2024).

Where only a bound is given, the exact number is not on record here.

The target in this assay is USP14 (Homo sapiens, UniProt P54578). As to the kind of experiment: USP14 inhibition (methodology of B. H. Lee et al. Nature 2010). The format is biochemical. To be noted: average value from three experimental determinations. Here is the method: Known USP14 inhibitor IU1 (1-(1-(4-fluorophenyl)-2,5-dimethyl-1H-pyrrol-3-yl)-2-(pyrrolidin-1-yl)ethanone; B. H. Lee et al. Nature 2010, 467 (9), 179) was used as a comparative reference agent. The IC50 values in the Table below represent the average value from three experimental determinations. In the table below, “A” represents an IC50 of 0 to 5 uM, “B” represents an IC50 of 5 to 10 uM, and “C” represents and IC50 of greater than 10 uM.
Sequence of USP14 (P54578 whole entry): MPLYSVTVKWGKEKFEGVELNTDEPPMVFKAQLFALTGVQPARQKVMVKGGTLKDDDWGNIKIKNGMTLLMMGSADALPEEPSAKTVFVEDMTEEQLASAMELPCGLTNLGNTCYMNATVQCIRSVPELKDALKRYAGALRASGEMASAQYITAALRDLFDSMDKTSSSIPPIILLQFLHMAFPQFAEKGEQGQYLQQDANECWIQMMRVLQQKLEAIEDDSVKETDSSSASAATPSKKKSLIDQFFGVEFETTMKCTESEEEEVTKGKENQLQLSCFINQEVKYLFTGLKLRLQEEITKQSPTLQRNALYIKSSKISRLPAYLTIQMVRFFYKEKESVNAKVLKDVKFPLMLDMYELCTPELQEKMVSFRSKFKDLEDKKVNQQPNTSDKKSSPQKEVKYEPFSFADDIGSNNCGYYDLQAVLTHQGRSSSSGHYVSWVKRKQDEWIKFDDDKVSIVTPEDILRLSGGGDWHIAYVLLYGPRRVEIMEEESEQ
Sequence of USP14 (Q13200 whole entry partner): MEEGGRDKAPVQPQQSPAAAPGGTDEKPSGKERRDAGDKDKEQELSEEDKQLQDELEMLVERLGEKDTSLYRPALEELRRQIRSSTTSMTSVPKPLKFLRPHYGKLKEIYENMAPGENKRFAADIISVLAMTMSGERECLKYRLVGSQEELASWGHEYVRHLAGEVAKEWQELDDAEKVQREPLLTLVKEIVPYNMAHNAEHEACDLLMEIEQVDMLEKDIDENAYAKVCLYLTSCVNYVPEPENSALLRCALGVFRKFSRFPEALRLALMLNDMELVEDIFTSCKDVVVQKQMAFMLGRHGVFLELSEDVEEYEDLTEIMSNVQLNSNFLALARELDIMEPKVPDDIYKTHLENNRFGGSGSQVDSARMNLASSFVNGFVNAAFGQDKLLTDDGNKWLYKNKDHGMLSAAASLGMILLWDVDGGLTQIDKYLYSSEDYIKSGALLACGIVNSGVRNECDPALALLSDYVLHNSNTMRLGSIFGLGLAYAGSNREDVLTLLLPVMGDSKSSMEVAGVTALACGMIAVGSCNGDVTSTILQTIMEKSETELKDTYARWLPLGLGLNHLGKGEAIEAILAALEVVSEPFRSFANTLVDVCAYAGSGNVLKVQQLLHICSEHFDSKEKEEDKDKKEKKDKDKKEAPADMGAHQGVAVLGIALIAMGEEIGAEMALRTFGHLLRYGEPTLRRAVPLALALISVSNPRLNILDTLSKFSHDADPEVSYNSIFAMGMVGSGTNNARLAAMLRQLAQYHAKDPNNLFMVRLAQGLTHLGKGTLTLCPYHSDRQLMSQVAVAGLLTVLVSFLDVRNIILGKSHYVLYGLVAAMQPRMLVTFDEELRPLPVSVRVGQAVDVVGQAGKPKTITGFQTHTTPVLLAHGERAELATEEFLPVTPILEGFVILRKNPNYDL
Sequence of USP14 (P35998 whole entry partner): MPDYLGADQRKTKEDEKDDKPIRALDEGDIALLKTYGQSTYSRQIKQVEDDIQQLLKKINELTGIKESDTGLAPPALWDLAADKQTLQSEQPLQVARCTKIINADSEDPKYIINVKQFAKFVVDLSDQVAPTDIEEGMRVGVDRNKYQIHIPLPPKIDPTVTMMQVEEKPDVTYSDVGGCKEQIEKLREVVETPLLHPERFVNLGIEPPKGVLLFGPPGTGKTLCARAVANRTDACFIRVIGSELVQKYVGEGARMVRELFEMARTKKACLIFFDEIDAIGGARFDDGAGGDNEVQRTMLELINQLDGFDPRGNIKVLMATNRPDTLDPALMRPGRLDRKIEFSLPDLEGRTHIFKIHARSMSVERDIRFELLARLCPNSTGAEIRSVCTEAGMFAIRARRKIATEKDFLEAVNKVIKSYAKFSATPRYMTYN
Regarding `Cc1cc(C(=O)CC2CCCC2)c(C)n1-c1ccc(Cl)cc1` [Compound A1, 1-[1-(4-Chloro-phenyl)-2,5-dimethyl-1H-pyrrol-3-yl]-2-cyclopentyl-ethanone], the concentration for half-maximal inhibition (IC50) is greater than 10 µM. The result for `Cc1cc(C(=O)CC2CCCCC2)c(C)n1-c1ccc(Cl)cc1` [Compound A2, 1-[1-(4-Chloro-phenyl)-2,5-dimethyl-1H-pyrrol-3-yl]-2cyclohexyl-ethanone] reads greater than 10 µM. `Cc1cc(C(=O)C(F)F)c(C)n1-c1ccc(Cl)cc1` [Compound A3, 1-(1-(4-chlorophenyl)-2,5-dimethyl-1H-pyrrol-3-yl)-2,2-difluoroethanone] yielded an IC50 greater than 10 µM. On to `Cc1cc(C(=O)CC(F)(F)F)c(C)n1-c1ccc(Cl)cc1` [Compound A4, 1-(1-(4-chlorophenyl)-2,5-dimethyl-1H-pyrrol-3-yl)-3,3,3-trifluoropropan-1-one], for which the half-maximal inhibitory concentration (IC50) is greater than 10 µM. `Cc1cc(C(=O)C(=O)O)c(C)n1-c1ccc(Cl)cc1` [Compound A5, 2-(1-(4-chlorophenyl)-2,5-dimethyl-1H-pyrrol-3-yl)-2-oxoacetic acid] registered a 50% inhibitory concentration (IC50) greater than 10 µM. The compound `Cc1cc(C(=O)C(=O)N2CCC(F)CC2)c(C)n1-c1ccc(Cl)cc1` [Compound A7, 1-(1-(4-chlorophenyl)-2,5-dimethyl-1H-pyrrol-3-yl)-2-(4-fluoropiperidin-1-yl)ethane-1,2-dione] displayed an IC50 greater than 10 µM.

`Cc1cc(C(=O)CCl)c(C)n1-c1ccc(Cl)cc1` [Compound A8, 2-chloro-1-(1-(4-chlorophenyl)-2,5-dimethyl-1H-pyrrol-3-yl)ethanone] had a 50% inhibitory concentration (IC50) greater than 10 µM. On to `Cc1cc(C(=O)Cn2cccc2)c(C)n1-c1ccc(Cl)cc1` [Compound A9, 1-[1-(4-Chloro-phenyl)-2,5-dimethyl-1H-pyrrol-3-yl]-2-pyrrol-1-yl-ethanone], for which the IC50 was greater than 10 µM. `Cc1cc(C(=O)Cn2ccnc2)c(C)n1-c1ccc(Cl)cc1` [Compound A10, 1-[1-(4-Chloro-phenyl)-2,5-dimethyl-1H-pyrrol-3-yl]-2-imidazol-1-yl-ethanone] registered an IC50 greater than 10 µM.

Regarding `Cc1cc(C(=O)CN2CCCCC2)c(C)n1C` [Compound A11, 2-(piperidin-1-yl)-1-(1,2,5-trimethyl-1H-pyrrol-3-yl)ethanone], the concentration for half-maximal inhibition (IC50) was greater than 10 µM. As for `Cc1cc(C(=O)CN2CCCC2)c(C)n1C` [Compound A12, 2-(pyrrolidin-1-yl)-1-(1,2,5-trimethyl-1H-pyrrol-3-yl)ethanone], the IC50 is greater than 10 µM. The compound `Cc1c(C(=O)CN2CCCC2)cnn1-c1ccc(Cl)cc1` [Compound A14, 1-[1-(4-Chloro-phenyl)-5-methyl-1H-pyrazol-4-yl]-2-pyrrolidin-1-yl-ethanone] came in with an IC50 of less than 5 µM. `Cc1nn(-c2ccc(Cl)cc2)c(C)c1C(=O)CN1CCCCC1` [Compound A18, 1-[1-(4-Chloro-phenyl)-3,5-dimethyl-1H-pyrazol-4-yl]-2-piperidin-1-yl-ethanone] came in with an IC50 of 5 to 10 µM. Turning to `Cc1nn(-c2ccc(Cl)cc2)c(C)c1C(=O)CN1CCCC1` [Compound A19, 1-[1-(4-Chloro-phenyl)-3,5-dimethyl-1H-pyrazol-4-yl]-2-Pyrrolidine-1-yl-ethanone], the IC50 was less than 5 µM. With `Cc1nn(-c2ccc(Cl)cc2)c(C)c1C(=O)CN(C)C1CC1` [Compound A20, 1-[1-(4-Chloro-phenyl)-3,5-dimethyl-1H-pyrazol-4-yl]-2-(Cyclopropyl-methyl-amino)-ethanone], the IC50 is greater than 10 µM. In turn, `Cc1nn(-c2ccc(Cl)cc2)c(C)c1C(=O)CC1CCCCC1` [Compound A21, 1-(1-(4-chlorophenyl)-3,5-dimethyl-1H-pyrazol-4-yl)-2-cyclohexylethanone] yielded an IC50 greater than 10 µM. `O=C(CN1CCCCC1)c1cnn(-c2ccc(Cl)cc2)c1` [Compound A22, 1-[1-(4-Chloro-phenyl)-1H-pyrazol-4-yl]-2-piperidin-1-yl-ethanone] gave a half-inhibitory concentration (IC50) greater than 10 µM. The result for `O=C(CN1CCCC1)c1cnn(-c2ccc(Cl)cc2)c1` [Compound A23, 1-[1-(4-Chloro-phenyl)-1H-pyrazol-4-yl]-2-pyrrolidin-1-yl-ethanone] reads greater than 10 µM; that for `CN(CC(=O)c1cnn(-c2ccc(Cl)cc2)c1)C1CC1` [Compound A24, 1-[1-(4-Chloro-phenyl)-1H-pyrazol-4-yl]-2-(cyclopropyl-methyl-amino)-ethanone], greater than 10 µM. `Cc1oc(-c2ccc(Cl)cc2)nc1C(=O)CN1CCCCC1` [Compound A25, 1-[2-(4-Chloro-phenyl)-5-methyl-oxazol-4-yl]-2-piperidin-1-yl-ethanone] came in with an IC50 greater than 10 µM.

For the compound `O=C(CN1CCCCC1)c1cc(-c2ccc(Cl)cc2)ns1` [Compound A26], the IC50 is greater than 10 µM.

The compound `Cc1sc(-c2ccc(Cl)cc2)cc1C(=O)CN1CCCCC1` [Compound A27, 1-(5-(4-chlorophenyl)-2-methylthiophen-3-yl)-2-(piperidin-1-yl)ethanone] returned an IC50 greater than 10 µM.

As for `Cc1sc(-c2ccc(Cl)cc2)cc1C(=O)CN1CCC(F)CC1` [Compound A28, 1-(5-(4-chlorophenyl)-2-methylthiophen-3-yl)-2-(4-fluoropiperidin-1-yl)ethanone], the IC50 was greater than 10 µM. In the case of `Cc1sc(-c2ccc(Cl)cc2)cc1C(=O)CN1CCC(O)CC1` [Compound A29, 1-(5-(4-chlorophenyl)-2-methylthiophen-3-yl)-2-(4-hydroxypiperidin-1-yl)ethanone], the IC50 was greater than 10 µM. Compound `Cc1c(C(=O)CN2CCCC2)nnn1-c1ccc(F)cc1` [Compound A30, 1-(1-(4-fluorophenyl)-5-methyl-1H-1,2,3-triazol-4-yl)-2-(pyrrolidin-1-yl)ethanone] yielded an IC50 greater than 10 µM. The result for `O=C(CN1CCCC1)N1CCN(c2ccc(Cl)cc2)CC1` [Compound A31, 1-(4-(4-chlorophenyl)piperazin-1-yl)-2-(pyrrolidin-1-yl)ethanone] reads greater than 10 µM; that for `O=C(CN1CCCCC1)N1CCN(c2ccc(F)cc2)CC1` [Compound A32, 1-(4-(4-fluorophenyl)piperazin-1-yl)-2-(piperidin-1-yl)ethanone], greater than 10 µM; that for `Cc1cc(C(=O)C(C)N2CCC(C(N)=O)CC2)c(C)n1-c1ccc(Cl)cc1` (stereo not shown) [Compound A44], greater than 10 µM. As for `CNC(=O)C1CCN(C(C)C(=O)c2cc(C)n(-c3ccc(Cl)cc3)c2C)CC1` (stereo not shown) [Compound A45], the figure is greater than 10 µM.

`COC(=O)C1CCN(C(C)C(=O)c2cc(C)n(-c3ccc(Cl)cc3)c2C)CC1` (stereo not shown) [Compound A46]: the IC50 is greater than 10 µM. As to `Cc1cc(C#N)c(C)n1-c1ccc(Cl)cc1` [Compound A47], the IC50 was greater than 10 µM.
